Patent US20240349768A1, “SWEETENER BLEND COMPRISING THAUMATIN AND ONE OR MORE REBAUDIOSIDE” (NOMAD BIOSCIENCE GMBH, priority 2021, published 2024)

Experiments:
test panelists [1] = assay: Round table qualitative assessment of quality of sweetness and undesirable attributes, scale of 1-10; assay type: in vivo; conditions: for Quality of sweetness (higher better): scale 1-10, 10 = 5% sucrose, 1 = 500 ppm RebA; for Off taste (lower better): scale 1-10, 10 = 500 ppm RebA, 1 = 5% sucrose
Method: Round table evaluations were performed with 7 test panelists. Equal sweet 5 SEV concentrations in neutral pH water were made for Thaumatin II (purity greater than 90%), Rebaudioside A, and Rebaudioside M. These equal sweet solutions were also mixed at 50% of Thaumatin II and 50% Reb M or RebA and compared to the individual components. All solutions were coded and blinded from panelists. Panelists were asked to provide a qualitative assessment on a scale of 1-10 of the quality of sweetness (10 being the highest quality of sweetness) and undesirable attributes (10 being most undesirable) of each solution using a 5% sucrose and 500 ppm RebA solutions as controls. For the quality of sweetness, the score 10 was assigned to 5% sucrose. Vice versa, the score 1 was assigned to and 500 ppm RebA. For undesirable attributes, the scores 10 and 1 were assigned to 500 ppm RebA and 5% sucrose, respectively.

test panelists [2] = assay: Round table evaluation of sweetness intensity (SEV) against sucrose reference samples; assay type: in vivo; conditions: 7 panelists, mean
Method: Round table evaluations were performed with 7 test panelists. Equal sweet 5 SEV concentrations in neutral pH water were made for Thaumatin II (purity greater than 90%), Rebaudioside A, and Rebaudioside M. These equal sweet solutions were also mixed at 50% of Thaumatin II and 50% Reb M or RebA and compared to the individual components. The components of the test compositions are described in the below tables. The mixed compositions were calculated using the Beidler mixture equation for the sweeteners. The Beidler mixture equation for sweeteners is as follows: [formula] The concentration of each component in the mixture in ppm is divided by SEV (c/R) and is plotted against concentration, c. The slope of the linear regression is the maximum SEV (Rmax). The y-intercept of the linear regression multiplied by Rmax is the half-maximal sweetness concentration, 1/K. Rmax and 1/K are the two parameters used in the Beidler equation. Mixtures were tasted in comparison to reference samples for the panelists to determine SEV values. References samples were 3%, 4%, 5%, 6%, 7%, and 8% sucrose in neutral pH water. The test samples were served in 2 ounce soufflé cups (approximately 60 ml) coded with 3-digit codes at room temperature. A two minute wait period between samples was enforced. Water and unsalted crackers was available for the panelists to clear their palates before and during testing. Results were collected for calculating approximate SEV level of each test sample.

C=C1C[C@@]23CC[C@H]4[C@@](C)(CCC[C@@]4(C)C(=O)O[C@@H]4O[C@H](CO)[C@@H](O)[C@H](O[C@@H]5O[C@H](CO)[C@@H](O)[C@H](O)[C@H]5O)[C@H]4O[C@@H]4O[C@H](CO)[C@@H](O)[C@H](O)[C@H]4O)[C@@H]2CC[C@]1(O[C@@H]1O[C@H](CO)[C@@H](O)[C@H](O[C@@H]2O[C@H](CO)[C@@H](O)[C@H](O)[C@H]2O)[C@H]1O[C@@H]1O[C@H](CO)[C@@H](O)[C@H](O)[C@H]1O)C3 [Rebaudioside M]
Quality of sweetness (higher better) (test panelists [1]; 155 ppm in neutral pH water): 8.8
Off taste (lower better) (test panelists [1]; 155 ppm in neutral pH water): 2.5
Quality of sweetness and off taste, in words (test panelists [1]; equal sweet 5 SEV solutions and their 50%/50% mixtures in neutral pH water): very mild artificial off taste
Sweetness intensity determined, SEV (test panelists [2]; 155 ppm in neutral pH water): 5.3 SEV

C=C1C[C@@]23CC[C@H]4[C@@](C)(CCC[C@@]4(C)C(=O)O[C@@H]4O[C@H](CO)[C@@H](O)[C@H](O)[C@H]4O)[C@@H]2CC[C@]1(O[C@@H]1O[C@H](CO)[C@@H](O)[C@H](O[C@@H]2O[C@H](CO)[C@@H](O)[C@H](O)[C@H]2O)[C@H]1O[C@@H]1O[C@H](CO)[C@@H](O)[C@H](O)[C@H]1O)C3 [Rebaudioside A]
Quality of sweetness (higher better) (test panelists [1]; 260 ppm in neutral pH water): 5.6
Off taste (lower better) (test panelists [1]; 260 ppm in neutral pH water): 6.7
Sweetness intensity determined, SEV (test panelists [2]; 260 ppm in neutral pH water): 4.8 SEV

B1: Thaumatin II: oligopeptide or protein of SEQ ID NO: 2; recombinant, purity greater than 90%, purified from transgenic Nicotiana tabacum plants (protein, listed as Thaumatococcus daniellii)
chain: ATFEIVNRCSYTVWAAASKGDAALDAGGRQLNSGESWTINVEPGTKGGKIWARTDCYFDDSGRGICRTGDCGGLLQCKRFGRPPTTLAEFSLNQYGKDYIDISNIKGFNVPMDFSPTTRGCRGVRCAADIVGQCPAKLKAPGGGCNDACTVFQTSEYCCTTGKCGPTEYSRFFKRLCPDAFSYVLDKPTTVTCPGSSNYRVTFCPTA
Quality of sweetness (higher better) (test panelists [1]; 7 ppm in neutral pH water): 6.5
Off taste (lower better) (test panelists [1]; 7 ppm in neutral pH water): 4.7
Sweetness intensity determined, SEV (test panelists [2]; 7 ppm in neutral pH water): 4.6 SEV
